This test relates to KB. In words: Cytotoxicity against human KB cells after 24 hrs by MTT assay. In kind it is functional, cell-based.

A value given as a limit tells only on which side of the number the result lay.

Data on 4 compounds can be found in ChEMBL document CHEMBL1148960, “Furanolabdane diterpenes from Hypoestes purpurea” (J Nat Prod, 2004).

Usually IC50 stands for the midpoint of a concentration-inhibition curve. Read a high IC50 as a need for much substance.

As for `CC1=C[C@H]2OC3OC(=O)[C@@]4(C)CCC[C@@]3([C@@H]24)[C@H]1CC(=O)c1ccoc1` [HYPOPURIN B], the IC50 is more than 100 µM.
As for `C[C@@]12C=C[C@@H]3[C@]4(CCC[C@]3(C)C(=O)OC4O1)[C@H]2CC(=O)c1ccoc1` (some centres undefined) [HYPOPURIN C], the half-inhibitory concentration (IC50) was more than 100 µM.
The value for `CC1=C[C@H]2OC(=O)[C@@]3(C)CCC[C@@](C)([C@@H]23)[C@H]1CCC1=CCOC1=O` [HYPOPURIN D] was more than 100 µM; that for `CC1=C[C@H]2OC(=O)[C@@]3(C)CCC[C@@](C)([C@@H]23)[C@H]1CC(=O)c1ccoc1` [HYPOPURIN A] was 9.4 µM.
